Measurements: patent US6762160B2, “Composition for removing biofilms comprising a detergent and a salt forming acid” (Universite de Montreal, priority 1998, dated 2004)
“Also recorded” adds a separate entry of the source.

How the values were obtained:
Mycobacterium sp. = assay type: cell-based
[1] = system: dental unit waterlines bacteria; assay: Antibacterial activity: growth in R2Am medium after disinfection of tubings;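 further: disinfected tubing pieces kept 7 days at room temperature in R2Am medium, then scored for presence or absence of bacterial growth by absorbance at 590 nm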
Protocol: To test the antibacterial activity, we used the same setup as above. After the 1 or 18 hour incubation, tubings were rinsed with sterile water. Pieces of tubings were dropped in sterile test tubes containing 4 ml of R2Am medium. Test tubes were capped and incubated for 7 days at room temperature. […] Data were recorded as presence or absence of growth with a spectrophotometer at λ=590 nm.

| SMILES | killing activity of bactericide, even against Mycobacterium sp. (Mycobacterium sp.) | growth after treatment ([1]; hydrogen peroxide 5% in Table 1 solutions) | bactericide tried in cleaning solution [1] |
| --- | --- | --- | --- |
| OO [hydrogen peroxide, Hydrogen peroxide] | broad host killing activity; also recorded: efficient | total absence of growth |  |
| Oc1ccccc1 [phenol] | efficient |  | success |
